# Experimental data from patent US20260274829A1, “NEW E3 UBIQUITIN LIGASE LIGAND, PROTEIN DEGRADATION AGENT AND USE THEREOF” (GLUETACS THERAPEUTICS (SHANGHAI) CO., LTD., priority 2023, published 2026).
# Read-outs that look alike come from different tables or passages of the source.
# Tests used:
# [1] = tested on: NCI-H1975 (H1975); test: CCK-8 tumor cell proliferation IC50, NCI-H1975; settings: Homo sapiens, Table B3, designed based on the EGFR inhibitors, 96 hours, read-out: Inhibitory activity (IC50, nM) on tumor cell proliferation: H1975
# Method: (§1) The tumor cells used herein were cultured in a cell culture medium listed in table A1 at 37° C. in an incubator with 5% CO2. Prior to experimentation, all cell lines used were correctly identified by STR profiling, and tested negative for mycoplasma contamination using a mycoplasma detection kit through routine screenings.
# (§2) IC50 values of the compounds of the present disclosure (including the compounds in Table 1, and compounds of examples) were measured using the Meilun Cell Counting Kit-8 kit from Dalian Meilun Biotech Co., Ltd. Assay details are as follows: tumor cells were seeded in a 96-well plate at a density listed in Table A2. After 24 h, 100 μL of the inoculated cells were treated with 0.5 μL of the compounds of the present disclosure (including the compounds in Tables 1 and 2, and compounds of examples) at 10 different successively decreasing concentrations (starting at the highest concentration of 1 μM; 5-fold serial dilutions). […] The growth inhibition of the compounds of the present disclosure on cells was plotted by Prism Graphpad software, and the IC50 values of the compounds of the present disclosure were calculated therefrom.
# [2] = tested on: MM.1R; test: CCK-8 tumor cell proliferation IC50, MM.1R; settings: Table B4, designed based on the CDK4/6 inhibitors, 72 hours, read-out: Inhibitory activity (IC50, nM) on tumor cell proliferation: MM.1R
# Method: as §1, §2
# [3] = tested on: LNcap; test: CCK-8 tumor cell proliferation IC50, LNcap; settings: Homo sapiens, Lncap cells, compounds designed based on the IRAK4 inhibitors, read-out: Inhibitory activity (IC50, nM) on tumor cell proliferation, Lncap
# Method: as §1, §2
# [4] = tested on: Jurkat; test: CCK-8 tumor cell proliferation IC50, Jurkat; settings: Homo sapiens, Jurkat cells, compounds designed based on the IRAK4 inhibitors, read-out: Inhibitory activity (IC50, nM) on tumor cell proliferation, Jurkat
# Method: as §1, §2
# [5] = tested on: MV-4-11; test: CCK-8 tumor cell proliferation IC50, MV-4-11; settings: Homo sapiens, MV4-11, MV-4-11 cells, compounds designed based on the IRAK4 inhibitors, read-out: Inhibitory activity (IC50, nM) on tumor cell proliferation, MV-4-11
# Method: as §1, §2
# [6] = tested on: CCRF-CEM; test: CCK-8 tumor cell proliferation IC50, CCRF-CEM; settings: Homo sapiens, CCRF-CEM cells, compounds designed based on the IRAK4 inhibitors, read-out: Inhibitory activity (IC50, nM) on tumor cell proliferation, CCRF-CEM
# Method: as §1, §2
# [7] = tested on: H1299; test: CCK-8 tumor cell proliferation IC50, H1299; design: species or system human; settings: compounds designed based on the IRAK4 inhibitors, read-out: Inhibitory activity (IC50, nM) on tumor cell proliferation, H1299
# Method: as §1
# as §2, with “dilutions). After the cells were treated with the compounds of the present disclosure for a period of time, the cell viability detection reagent was added to the culture medium for cell viability assessment according to the instructions provided with the CCK-8 kit.” for “dilutions).”
# [8] = tested on: SR; test: CCK-8 tumor cell proliferation IC50, SR; settings: Homo sapiens, SR cells, compounds designed based on the IRAK4 inhibitors, read-out: Inhibitory activity (IC50, nM) on tumor cell proliferation, SR
# Method: as §1, §2
# [9] = tested on: MM.1S (MM1S); test: CCK-8 tumor cell proliferation IC50, MM.1S; settings: MM.1S cells, compounds designed based on the IRAK4 inhibitors, read-out: Inhibitory activity (IC50, nM) on tumor cell proliferation, MM.1S
# Method: as §1
# as §2, with “dilutions). After the cells were treated with the compounds of the present disclosure for a period of time, the cell viability detection reagent was added to the culture medium for cell viability assessment according to the instructions provided with the CCK-8 kit.” for “dilutions).”
# [10] = tested on: MGC-803 (MGC80-3, MGC803); test: CCK-8 tumor cell proliferation IC50, MGC-803; design: species or system human; settings: MGC803 cells, compounds designed based on the IRAK4 inhibitors, read-out: Inhibitory activity (IC50, nM) on tumor cell proliferation, MGC803
# Method: as §1
# as §2, with “dilutions). After the cells were treated with the compounds of the present disclosure for a period of time, the cell viability detection reagent was added to the culture medium for cell viability assessment according to the instructions provided with the CCK-8 kit.” for “dilutions).”
SMILES,IC50 [1] [nM],IC50 [9] [nM],IC50 ([7]; H1299 cells) [nM],IC50 [10] [nM],other results
"O=C1CCN(c2ccc(CN3C4CCC3CN(c3ccc(-c5cc(F)c6c(c5)C(=O)N(C(C(=O)Nc5nccs5)c5ncn7c5CCC7)C6)cc3)C4)cn2)C(=O)N1 (stereo not drawn) [GT-06256, 2-(6,7-dihydro-5H-pyrrolo[1,2-c]imidazol-1-yl)-2-(6-(4-(8-((6-(2,4-dioxotetrahydropyrimidin-1(2H)-yl)pyridin-3-yl)methyl)-3,8-diazabicyclo[3.2.1]octan-3-yl)phenyl)-4-fluoro-1-oxoisoindolin-2-yl)-N-(thiazol-2-yl)acetamide]",1 to 10,–,–,–,–
CCN1CCN(Cc2ccc(Nc3ncc(F)c(-c4cc(F)c5nc(C)n(C(C)C)c5c4)n3)nc2)CC1 [abemaciclib],–,–,–,–,IC50 [2]: 1000 to 5000 nM
"O=C1CCC(Nc2cccc(CN3C4CCC3CN(c3ccc(-c5cc(F)c6c(c5)C(=O)N(C(C(=O)Nc5nccs5)c5ncn7c5CCC7)C6)cc3)C4)c2)C(=O)N1 (stereo not drawn) [GT-06257, 2-(6,7-dihydro-5H-pyrrolo[1,2-c]imidazol-1-yl)-2-(6-(4-(8-(3-((2,6-dioxopiperidin-3-yl)amino)benzyl)-3,8-diazabicyclo[3.2.1]octan-3-yl)phenyl)-4-fluoro-1-oxoisoindolin-2-yl)-N-(thiazol-2-yl)acetamide]",1 to 10,–,–,–,–
Cc1cc(-c2nc(C(=O)Nc3cc4oc(N5CCOCC5)nc4nc3N3CC[C@@H](O)C3)co2)ccn1 [emavusertib],–,–,–,–,"IC50 [3]: > 10000 nM; IC50 [4]: > 10000 nM; IC50 [5]: 50 to 100 nM; IC50 [6]: > 10000 nM; IC50 ([7]; Homo sapiens, NCI-H1299, H1299 cells): > 10000 nM; IC50 [8]: > 10000 nM"
"O=C1CCN(c2ccc(CN3CCN(c4ccc5c(c4)nc(NC(=O)c4cccc(C(F)(F)F)c4)n5[C@H]4CC[C@@H](CO)CC4)CC3)nc2)C(=O)N1 [GT-04986, N-(5-(4-((5-(2,4-dioxotetrahydropyrimidin-1(2H)-yl)pyridin-2-yl)methyl)piperazin-1-yl)-1-((1s,4s)-4-(hydroxymethyl)cyclohexyl)-1H-benzo[d]imidazol-2-yl)-3-(trifluoromethyl)benzamide]",–,100 to 500,100 to 500,100 to 500,–
"CC[C@@H]1[C@H](F)C(=O)N[C@@H]1COc1nccc2cc(C(N)=O)c(OC)cc12 [PF06650833, reference compound]",–,> 10000,5000 to 10000,5000 to 10000,–
